Data from patent US9187450B2, “Substituted pyridine compound” (Daiichi Sankyo Company, Limited, priority 2010, dated 2015).

Molecular target: recombinant human CETP protein (Homo sapiens (Human), UniProt P11597)
Assay: Test of CETP inhibition activity (in vitro, buffer-based)
Format: biochemical
Details: reconstituted HDL with [14C]-labeled cholesteryl ester, acceptor lipoprotein, 37° C.
Method: Test of CETP Inhibition Activity (In Vitro, Buffer-Based)
(1) Preparation of Reconstituted HDL
Cholesterol (1.125 μmol), phosphatidyl choline (4.5 μmol) and [^14C]-labeled cholesteryl ester (2.0 μCi; 40 μl) were taken in a glass test tube and well mixed with a vortex, and dried under a nitrogen gas current so that it formed a thin film. The obtained mixture was dissolved in ethanol (200 μl), which was designated as Solution A. A PBS solution [a mixed solution of Na2HPO4 (30 mM), KH2PO4 (8.8 mM), NaCl (60 mM) and EDTA (pH 7.4; 0.67 mM); 4 ml] was taken in a tube and the reaction solution was vigorously stirred with a vortex under a nitrogen current. The above-described Solution A was gently injected into this mixture with a syringe and the reaction solution was vigorously stirred with a vortex for 5 minutes under a nitrogen current. Sodium cholate ([…]; 0.38 ml) was added to the obtained mixture and the reaction solution was stirred for 2 minutes. ApoA-I protein (3 mg) was added to the obtained mixture and the reaction solution was stirred for 2 minutes. The obtained mixture was adjusted to 5 ml with the PBS solution and then dialyzed with the PBS solution. The obtained mixture was designated as the reconstituted HDL.
(2) Preparation of Acceptor Lipoprotein
NaBr was added to the plasma of a healthy person and the density of the mixture was adjusted to 1.019, and the mixture was subjected to density gradient centrifugation (40000 rpm, for 16 hours) to remove the fraction having a density of less than 1.019. NaBr was added to the obtained mixture and the density of the solution was adjusted to 1.063, and the solution was subjected to density gradient centrifugation (40000 rpm, 18 hours) to provide the fraction consisting of IDL (intermediate density lipoprotein) and LDL (1.019<density<1.063). The obtained fraction was dialyzed with the PBS solution. The obtained mixture was designated as the acceptor lipoprotein.
(3) Measurement of CETP Inhibition Activity
A recombinant human CETP protein (manufactured by Roar Biomedical Inc.; 4.5 ng), the acceptor lipoprotein described in (2) above (32.5 μg) and 5,5′-dithio-bis-(2-nitrobenzoic acid) (7 mM, 15 μl) were taken in a 96 well plate and the total amount of the mixture was adjusted to 48.5 μl with the PBS solution. The test compound [DMSO solution (concentration: 0.15, 0.5, 1.5, 5, 15, 50, 150 and 500 μM; 1.5 μl] was added to each well and the mixture was incubated in a thermostatic bath at 37° C. for 60 minutes. The reconstituted HDL (50 μl) described in (1) above was added to each well and the mixture was reacted in a thermostatic bath at 37° C. for 60 minutes. The 96 well plate was moved onto ice and a precipitation reagent [a mixed solution of magnesium chloride (60 mM) and 0.1% dextran sulfate [1/1 (v/v)]; 15 μl] was added to each well, and then the mixture was allowed to stand on ice for 15 minutes. The reaction solution (80 μl) in each well was moved to a filter plate and centrifuged at 1500 rpm for 1 minute, and the filtrate which passed through the filter was designated as the HDL fraction and the radioactivity thereof was measured with a scintillation counter. The percentage decrease in radioactivity in the case where the test compound was added in comparison with that in case where the test compound was not added was designated as the percentage CETP inhibition. The IC50 value was calculated from the percentage CETP inhibition.

Chain of recombinant human CETP protein (P11597 18-493): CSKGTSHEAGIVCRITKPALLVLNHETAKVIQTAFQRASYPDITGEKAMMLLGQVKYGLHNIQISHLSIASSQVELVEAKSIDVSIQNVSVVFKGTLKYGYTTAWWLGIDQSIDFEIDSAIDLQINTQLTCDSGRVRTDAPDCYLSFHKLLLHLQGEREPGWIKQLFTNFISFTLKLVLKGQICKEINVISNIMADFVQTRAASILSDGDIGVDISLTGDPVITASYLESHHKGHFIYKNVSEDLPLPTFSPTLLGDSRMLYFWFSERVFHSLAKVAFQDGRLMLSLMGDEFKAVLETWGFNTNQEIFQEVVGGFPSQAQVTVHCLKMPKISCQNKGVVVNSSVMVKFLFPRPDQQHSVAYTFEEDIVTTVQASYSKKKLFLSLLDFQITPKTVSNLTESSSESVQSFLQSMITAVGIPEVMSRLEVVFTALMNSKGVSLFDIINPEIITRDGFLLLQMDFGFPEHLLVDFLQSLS

Compound | IC50
CC1(C)Cc2nc(C3CCN(c4ncc(N5CCSCC5)cn4)CC3)c([C@@H](F)c3ccc(C(F)(F)F)cc3)c(C3CCC(F)(F)CC3)c2[C@@H](O)C1 (single isomer, unassigned) [Example 9, (−)-4-(4,4-Difluorocyclohexyl)-3-{fluoro[4-(trifluoromethyl)phenyl]methyl}-7,7-dimethyl-2-{1-[5-(thiomorpholin-4-yl)pyrimidin-2-yl]piperidin-4-yl}-5,6,7,8-tetrahydroquinolin-5-ol] | 122 nM
CC1(C)Cc2nc(C3CCN(c4ncccn4)CC3)c([C@@H](F)c3ccc(C(F)(F)F)cc3)c(C3CCC(F)(F)CC3)c2[C@@H](O)C1 (single isomer, unassigned) [Example 1, (−)-4-(4,4-Difluorocyclohexyl)-3-{fluoro[4-(trifluoromethyl)phenyl]methyl}-7,7-dimethyl-2-[1-(pyrimidin-2-yl)-piperidin-4-yl]-5,6,7,8-tetrahydroquinolin-5-ol] | 83 nM
C[C@H](O)COc1cnc(N2CCC(c3nc4c(c(C5CCC(F)(F)CC5)c3[C@@H](F)c3ccc(C(F)(F)F)cc3)[C@@H](O)CC(C)(C)C4)CC2)nc1 [Example 37, (−)-4-(4,4-Difluorocyclohexyl)-3-{fluoro[4-(trifluoromethyl)phenyl]methyl}-2-[1-(5-{[(2S)-2-hydroxypropyl]oxy}pyrimidin-2-yl)piperidin-4-yl]-7,7-dimethyl-5,6,7,8-tetrahydroquinolin-5-ol] | 25 nM
CC1(C)Cc2nc(C3CCN(c4ncc(OC[C@@H](O)CO)cn4)CC3)c([C@@H](F)c3ccc(C(F)(F)F)cc3)c(C3CCC(F)(F)CC3)c2[C@@H](O)C1 [Example 39, (−)-4-(4,4-Difluorocyclohexyl)-2-[1-(5-{[(2S)-2,3-dihydroxypropyl]oxy}pyrimidin-2-yl)piperidin-4-yl]-3-{fluoro[4-(trifluoromethyl)phenyl]methyl}-7,7-dimethyl-5,6,7,8-tetrahydroquinolin-5-ol] | 32 nM
CNC(=O)c1cnc(N2CCC(c3nc4c(c(C5CCC(F)(F)CC5)c3[C@@H](F)c3ccc(C(F)(F)F)cc3)[C@@H](O)CC(C)(C)C4)CC2)nc1 (single isomer, unassigned) [Example 30, 4-(4,4-Difluorocyclohexyl)-3-{fluoro[4-(trifluoromethyl)phenyl]methyl}-7,7-dimethyl-2-{1-[5-(methylcarbamoyl)pyrimidin-2-yl]piperidin-4-yl}-5,6,7,8-tetrahydroquinolin-5-ol] | 32 nM
CC(C)/C=C/c1cnc(N2CCC(c3nc4c(c(C5CCC(F)(F)CC5)c3[C@@H](F)c3ccc(C(F)(F)F)cc3)[C@@H](O)CC(C)(C)C4)CC2)nc1 (single isomer, unassigned) [Example 34, (−)-4-(4,4-Difluorocyclohexyl)-3-{fluoro[4-(trifluoromethyl)phenyl]methyl}-7,7-dimethyl-2-(1-{5-[(1E)-3-methylbut-1-ene-1-yl]pyrimidin-2-yl}piperidin-4-yl)-5,6,7,8-tetrahydroquinolin-5-ol] | 54 nM
CC(C)Cc1cnc(N2CCC(c3nc4c(c(C5CCC(F)(F)CC5)c3[C@@H](F)c3ccc(C(F)(F)F)cc3)[C@@H](O)CC(C)(C)C4)CC2)nc1 (single isomer, unassigned) [Example 24, (−)-4-(4,4-Difluorocyclohexyl)-3-{fluoro[4-(trifluoromethyl)phenyl]methyl}-7,7-dimethyl-2-{1-[5-(2-methylpropyl)pyrimidin-2-yl]piperidin-4-yl}-5,6,7,8-tetrahydroquinolin-5-ol] | 54 nM
CC(C)S(=O)(=O)N(C)Cc1cnc(N2CCC(c3nc4c(c(C5CCC(F)(F)CC5)c3[C@@H](F)c3ccc(C(F)(F)F)cc3)[C@@H](O)CC(C)(C)C4)CC2)nc1 (single isomer, unassigned) [Example 52, 4-(4,4-Difluorocyclohexyl)-3-{fluoro[4-(trifluoromethyl)phenyl]methyl}-7,7-dimethyl-2-[1-(5-{[methyl(propan-2-ylsulfonyl)amino]methyl}pyrimidin-2-yl)piperidin-4-yl]-5,6,7,8-tetrahydroquinolin-5-ol] | 6 nM
CC1(C)Cc2nc(C3CCN(c4ncc(O)cn4)CC3)c([C@@H](F)c3ccc(C(F)(F)F)cc3)c(C3CCC(F)(F)CC3)c2[C@@H](O)C1 (single isomer, unassigned) [Example 4, (−)-4-(4,4-Difluorocyclohexyl)-3-{fluoro[4-(trifluoromethyl)phenyl]methyl}-2-[1-(5-hydroxypyrimidin-2-yl)piperidin-4-yl]-7,7-dimethyl-5,6,7,8-tetrahydroquinolin-5-ol] | 73 nM
CC1(C)Cc2nc(C3CCN(c4ncc(C#N)cn4)CC3)c([C@@H](F)c3ccc(C(F)(F)F)cc3)c(C3CCC(F)(F)CC3)c2[C@@H](O)C1 (single isomer, unassigned) [Example 17, (−)-2-[1-(5-cyanopyrimidine-2-yl)piperidin-4-yl]-4-(4,4-difluorocyclohexyl)-3-{fluoro[4-(trifluoromethyl)phenyl]methyl}-7,7-dimethyl-5,6,7,8-tetrahydroquinoline-5-ol] | 217 nM
CN(Cc1cnc(N2CCC(c3nc4c(c(C5CCC(F)(F)CC5)c3[C@@H](F)c3ccc(C(F)(F)F)cc3)[C@@H](O)CC(C)(C)C4)CC2)nc1)S(C)(=O)=O (single isomer, unassigned) [Example 51, (−)-4-(4,4-Difluorocyclohexyl)-3-{fluoro[4-(trifluoromethyl)phenyl]methyl}-7,7-dimethyl-2-[1-(5-{[methyl(methylsulphonyl)amino]methyl}pyrimidin-2-yl)piperidin-4-yl]-5,6,7,8-tetrahydroquinolin-5-ol] | 6 nM
CC(C)CCOc1cnc(N2CCC(c3nc4c(c(C5CCC(F)(F)CC5)c3[C@@H](F)c3ccc(C(F)(F)F)cc3)[C@@H](O)CC(C)(C)C4)CC2)nc1 (single isomer, unassigned) [Example 22, (−)-4-(4,4-difluorocyclohexyl)-3-{fluoro[4-(trifluoromethyl)phenyl]methyl}-7,7-dimethyl-2-{1-[5-(3-methylbutoxyl)pyrimidine-2-yl]piperidin-4-yl}-5,6,7,8-tetrahydroquinoline-5-ol] | 111 nM
CCOCc1cnc(N2CCC(c3nc4c(c(C5CCC(F)(F)CC5)c3[C@@H](F)c3ccc(C(F)(F)F)cc3)[C@@H](O)CC(C)(C)C4)CC2)nc1 (single isomer, unassigned) [Example 26, (−)-4-(4,4-Difluorocyclohexyl)-2-{1-[5-(ethoxymethyl)pyrimidin-2-yl]piperidin-4-yl}-3-{fluoro[4-(trifluoromethyl)phenyl]methyl}-7,7-dimethyl-5,6,7,8-tetrahydroquinolin-5-ol] | 45 nM
CN1CCC(Oc2cnc(N3CCC(c4nc5c(c(C6CCC(F)(F)CC6)c4[C@@H](F)c4ccc(C(F)(F)F)cc4)[C@@H](O)CC(C)(C)C5)CC3)nc2)CC1 (single isomer, unassigned) [Example 38, 4-(4,4-Difluorocyclohexyl)-3-{fluoro[4-(trifluoromethyl)phenyl]methyl}-7,7-dimethyl-2-(1-{5-[(1-methylpiperidin-4-yl)oxy]pyrimidin-2-yl}piperidin-4-yl)-5,6,7,8-tetrahydroquinolin-5-ol] | 10 nM
CC(C)OCc1cnc(N2CCC(c3nc4c(c(C5CCC(F)(F)CC5)c3[C@@H](F)c3ccc(C(F)(F)F)cc3)[C@@H](O)CC(C)(C)C4)CC2)nc1 (single isomer, unassigned) [Example 28, (−)-4-(4,4-difluorocyclohexyl)-3-{fluoro[4-(trifluoromethyl)phenyl]methyl}-7,7-dimethyl-2-(1-{5-[(propan-2-yloxy)methyl]pyrimidine-2-yl}piperidin-4-yl)-5,6,7,8-tetrahydroquinoline-5-ol] | 78 nM
